Counter-ions that a name gives are not always drawn. Where only a bound is given, the exact number is not on record here.

This assay has as its target RIPK1 (recombinant GST-RIPK1 kinase domain, residues 1-327) (Homo sapiens (Human), UniProt Q13546). Nature of the assay: RIPK1-ADP-Glo Enzymatic Assay. It counts as biochemical. To be noted: ADP-Glo; 25 nM GST-RIPK1, 300 μM ATP; assay lower limit ~25 nM; read-out: RIPK1 V0 Ec50. The procedure, abridged: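 Compounds titrated 10-pt 1:3 from 100000 nM top (1% DMSO); 30 min preinc w/ 25 nM Sf21-expressed enzyme, RT; start w/ ATP (300 μM final) + dephos-MBP (3 μM); 150 min; ADP-Glo lumi; 4-param fit → EC50.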

RIPK1 (recombinant GST-RIPK1 kinase domain, residues 1-327), sequence (Q13546 1-327): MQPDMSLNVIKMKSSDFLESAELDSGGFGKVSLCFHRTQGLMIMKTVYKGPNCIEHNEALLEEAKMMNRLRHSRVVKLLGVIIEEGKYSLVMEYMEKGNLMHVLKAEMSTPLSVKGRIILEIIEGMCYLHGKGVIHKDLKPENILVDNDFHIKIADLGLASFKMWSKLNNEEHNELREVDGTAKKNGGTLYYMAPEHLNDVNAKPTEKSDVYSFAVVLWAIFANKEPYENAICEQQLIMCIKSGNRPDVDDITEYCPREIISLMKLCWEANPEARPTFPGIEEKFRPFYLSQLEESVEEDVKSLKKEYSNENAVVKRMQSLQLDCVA

For `COc1cc(-n2ccc(N3CCC4(CC3)O[C@@H]3CC[C@@H](c5ccccc5)N3C4=O)n2)ccn1` [Example 11.6, (5′S,7a′R)-1-[1-(2-methoxypyridin-4-yl)-1H-pyrazol-3-yl]-5′-phenyltetrahydro-3′H-spiro[piperidine-4,2′-pyrrolo[2,1-b][1,3]oxazol]-3′-one], the EC50 was 31.4 nM.

In the case of `O=C(c1ncccc1Cl)N1CCC2(CC1)O[C@@H]1CC[C@@H](c3cc(F)cc(F)c3)N1C2=O` [Example 6.53, (5′S,7a′R)-1-(3-chloropyridine-2-carbonyl)-5′-(3,5-difluorophenyl)tetra-hydro-3′H-spiro [piperidine-4,2′-pyrrolo[2,1-b][1,3]-oxazol]-3′-one], the EC50 stood at 147 nM.

Consider `Cc1ncc([C@@H]2CC[C@H]3OC4(CCN(C(=O)c5ccccc5)CC4F)C(=O)N32)cc1F` (stereo partly drawn) [Example 2.9, (5′S,7a′R)-1-(benzenecarbonyl)-3-fluoro-5′-(5-fluoro-6-methylpyridin-3-yl)tetrahydro-3′H-spiro[piperidine-4,2′-pyrrolo[2,1-b][1,3]oxazol]-3′-one], for which the EC50 was determined as 106 nM.

For `O=C1N2[C@@H](CC[C@H]2c2cc(F)cc(F)c2)OC12CCN(c1cncc3ncnn13)CC2` [Example 13.4, (5′S,7a′R)-1-([1,2,4]triazolo[1,5-a]pyrazin-5-yl)-5′-(3,5-difluorophenyl)tetrahydro-3′H-spiro[piperidine-4,2′-pyrrolo[2,1-b]oxazol]-3′-one, TFA salt], the EC50 stood at 56 nM.

Regarding `O=C1N2[C@@H](CC[C@H]2c2cncc(F)c2)OC12CCN(c1ccnc3c(F)cnn13)CC2` [Example 4.49, (5′S,7a′R)-1-(3-fluoropyrazolo[1,5-a]pyrimidin-7-yl)-5′-(5-fluoropyridin-3-yl)tetrahydro-3′H-spiro[piperidine-4,2′-pyrrolo[2,1-b] [1,3]oxazol]-3′-one], the EC50 was less than 25 nM.

Consider `N#Cc1ccc(N2CCC3(CC2)O[C@@H]2CC[C@@H](c4cncc(F)c4)N2C3=O)n2nccc12` [Example 14.3, 7-((5′S,7a′R)-5′-(5-fluoropyridin-3-yl)-3′-oxotetrahydro-3′H-spiro[piperidine-4,2′-pyrrolo[2,1-b]oxazol]-1-yl)pyrazolo[1,5-a]pyridine-4-carbonitrile], for which the EC50 was less than 25 nM.

Turning to `COc1ccnc(N2CCC3(CC2)O[C@@H]2CC[C@@H](c4cc(F)cc(F)c4)N2C3=O)n1` [Example 4.10, (5′S,7a′R)-5′-(3,5-difluorophenyl)-1-(4-methoxypyrimidin-2-yl)tetrahydro-3′H-spiro[piperidine-4,2′-pyrrolo[2,1-b] [1,3]oxazol]-3′-one], the EC50 is 35.5 nM.

With `O=C1N2[C@@H](CC[C@H]2c2ccccc2)OC12CCN(c1nccc(-c3ccccn3)n1)CC2` [Example 11.11, (5′S,7a′R)-5′-phenyl-1-[4-(pyridin-2-yl)pyrimidin-2-yl]tetrahydro-3′H-spiro[piperidine-4,2′-pyrrolo[2,1-b][1,3]oxazol]-3′-one], the EC50 is 42 nM.

For the compound `O=C(c1cc(O)ccc1F)N1CCC2(CC1)O[C@@H]1CC[C@@H](c3cc(F)cc(F)c3)N1C2=O` [Example 5.57, (5′S,7a′R)-5′-(3,5-difluoro-phenyl)-1-(2-fluoro-5-hydroxybenzoyl)tetra-hydro-3′H-spiro[piperidine-4,2′-pyrrolo[2,1-b]oxazol]-3'-one], the EC50 was less than 25 nM.

Regarding `N#Cc1cncc(N2CCC3(CC2)O[C@@H]2CC[C@@H](c4ccccc4)N2C3=O)n1` [Example 4.7, 6-[(5′S,7a′R)-3′-oxo-5′-phenyltetrahydro-1H,3′H-spiro[piperidine-4,2′-pyrrolo[2,1-b] [1,3]oxazol]-1-yl]pyrazine-2-carbonitrile], the EC50 amounted to 113 nM.

Turning to `Cn1nc(C(F)(F)F)cc1-c1ccc(N2CCC3(CC2)O[C@@H]2CC[C@@H](c4ccccc4)N2C3=O)n2ncnc12` [Example 21.20, (5′S,7a′R)-1-{8-[1-methyl-3-(trifluoromethyl)-1H-pyrazol-5-yl][1,2,4]triazolo[1,5-a]pyridin-5-yl}-5′-phenyltetrahydro-3′H-spiro[piperidine-4,2′-pyrrolo[2,1-b][l,3]oxazol]-3′-one], the EC50 is less than 25 nM.

Regarding `O=C1N2[C@@H](CC[C@H]2c2ccccc2)OC12CCN(c1ccc(OC3CCC3)nn1)CC2` [Example 11.9, (5′S,7a′R)-1-[6-(cyclobutyloxy)pyridazin-3-yl]-5′-phenyltetrahydro-3′H-spiro[piperidine-4,2′-pyrrolo[2,1-b][1,3]oxazol]-3′-one], the EC50 was found to be 907 nM.

With `N#Cc1cc(C(=O)N2CCC3(CC2)O[C@@H]2CC[C@@H](c4cccc(F)c4)N2C3=O)ccc1F` [Example 6.113, 2-fluoro-5-[(5′S,7a′R)-5′-(3-fluorophenyl)-3′-oxotetrahydro-1H,3′H-spiro[piperidine-4,2′-pyrrolo[2,1-b][1,3]-oxazole]-1-carbonyl] benzonitrile], the EC50 is less than 25 nM.

As for `Cc1cc(C)cc(C(=O)N2CCC3(CC2)O[C@@H]2CC[C@@H](c4cccc(F)c4)N2C3=O)c1` [Example 6.132, (5′S,7a′R)-1-(3,5-dimethylbenzene-1-carbonyl)-5′-(3-fluoro-phenyl)tetrahydro-3′H-spiro[piperidine-4,2′-pyrrolo[2,1-b][1,3]oxazol]-3′-one], the EC50 is 71.7 nM.

For the compound `O=C(c1ccc(F)c(F)n1)N1CCC2(CC1)O[C@@H]1CC[C@@H](c3cc(F)cc(F)c3)N1C2=O` [Example 6.94, (5′S,7a′R)-5′-(3,5-difluorophenyl)-1-(5,6-difluoropyridine-2-carbonyl)tetrahydro-3′H-spiro[piperidine-4,2′-pyrrolo[2,1-b] [1,3]oxazol]-3′-one], the EC50 worked out at 30.5 nM.

For the compound `CSc1cc(N2CCC3(CC2)O[C@@H]2CC[C@@H](c4ccccc4)N2C3=O)ncn1` [Example 4.27, (5′S,7a′R)-1-[6-(methylsulfanyl)pyrimidin-4-yl]-5′-phenyltetrahydro-3′H-spiro[piperidine-4,2′-pyrrolo[2,1-b] [1,3]oxazol]-3′-one], the EC50 came out at 18 nM.

As for `O=C(c1ncn2ccccc12)N1CCC2(CC1)O[C@@H]1CC[C@@H](c3cc(F)cc(F)c3)N1C2=O` [Example 5.74, (5′S,7a′R)-5′-(3,5-difluoro-phenyl)-1-(imidazo[1,5-a]-pyridine-1-carbonyl)tetra-hydro-3′H-spiro[piperi-dine-4,2′-pyrrolo[2,1-b]oxazol]-3′-one], the EC50 stood at 42.4 nM.

On to `N#Cc1cccc([C@@H]2CC[C@H]3OC4(CCN(c5ccnc6c(F)cnn56)CC4)C(=O)N32)c1F` [Example 20.5, 2-fluoro-3-[(5′S,7a′R)-1-(3-fluoropyrazolo[1,5-a]pyrimidin-7-yl)-3′-oxotetrahydro-3′H-spiro[piperidine-4,2′-pyrrolo[2,1-b][1,3]oxazol]-5′-yl]benzonitrile], for which the EC50 was less than 25 nM.

In the case of `O=C1N2[C@H](CC[C@H]2c2cccc(F)c2)OC12CCN(c1ccnc3c(F)cnn13)CC2` [Example 4.15, (5′S,7a′S)-5′-(3-fluorophenyl)-1-(3-fluoropyrazolo[1,5-a]pyrimidin-7-yl)tetrahydro-3′H-spiro[piperidine-4,2′-pyrrolo[2,1-b] [1,3]oxazol]-3′-one], the EC50 is less than 25 nM.

Turning to `O=C1N2[C@@H](CC[C@H]2c2ccccc2)OC12CCN(c1ccn(-c3cnccn3)n1)CC2` [Example 11.5, (5′S,7a′R)-5′-phenyl-1-[1-(pyrazin-2-yl)-1H-pyrazol-3-yl]tetrahydro-3′H-spiro[piperidine-4,2′-pyrrolo[2,1-b][1,3]oxazol]-3′-one], the EC50 worked out at 67.7 nM.

As for `O=C(c1ccccc1)N1CCC2(CC1)O[C@@H]1CC[C@@H](c3cccc(F)c3)N1C2=O` [Example 1.5, (5′S,7a′R)-1-(benzenecarbonyl)-5′-(3-fluorophenyl)tetrahydro-3′H-spiro[piperidine-4,2′-pyrrolo[2,1-b] [1,3]oxazol]-3′-one], the EC50 is less than 25 nM.

Turning to `O=C(c1cc(I)c(I)c(I)c1)N1CCC2(CC1)O[C@@H]1CC[C@@H](c3cc(F)cc(F)c3)N1C2=O` [Example 5.65, (5′S,7a′R)-5′-(3,5-difluoro-phenyl)-1-(3,4,5-triiodo-benzoyl)tetrahydro-3′H-spiro[piperidine-4,2′-pyrrolo[2,1-b]oxazol]-3′-one], the EC50 came out at 244 nM.

In the case of `COc1nc(N2CCC3(CC2)O[C@@H]2CC[C@@H](c4ccccc4)N2C3=O)ncc1F` [Example 11.29, (5′S,7a′R)-1-(5-fluoro-4-methoxypyrimidin-2-yl)-5′-phenyltetrahydro-3′H-spiro[piperidine-4,2′-pyrrolo[2,1-b][1,3]oxazol]-3′-one], the EC50 was less than 25 nM.

In the case of `O=C1N2[C@@H](CC[C@H]2c2ccccc2)OC12CCN(c1ccc(-c3cc4n(n3)CCC4)c3ncnn13)CC2` [Example 21.18, (5′S,7a′R)-1-[8-(5,6-dihydro-4H-pyrrolo[1,2-b]pyrazol-2-yl)[1,2,4]triazolo[1,5-a]pyridin-5-yl]-5′-phenyltetrahydro-3′H-spiro[piperidine-4,2′-pyrrolo[2,1-b][l,3]oxazol]-3′-one], the EC50 was less than 25 nM.

`CCOc1cnc(N2CCC3(CC2)O[C@@H]2CC[C@@H](c4cc(F)cc(F)c4)N2C3=O)nc1` [Example 4.57, (5′S,7a′R)-5′-(3,5-difluorophenyl)-1-(5-ethoxypyrimidin-2-yl)tetrahydro-3′H-spiro[piperidine-4,2′-pyrrolo[2,1-b] [1,3]oxazol]-3′-one]: the EC50 worked out at 243 nM.

Take `C[C@@]12CC[C@@H](c3ccccc3)N1C(=O)C1(CCN(c3ccnc4c(F)cnn34)CC1)O2` [Example 4.81, (5′S,7a′R)-1-(3-fluoropyrazolo[1,5-a]pyrimidin-7-yl)-7a′-methyl-5′-phenyltetrahydro-3′H-spiro[piperidine-4,2′-pyrrolo[2,1-b] [1,3]oxazol]-3′-one]: the EC50 was found to be 51.2 nM.

Values taken from patent publication US12180226B2, “Spirotricycle RIPK1 inhibitors and methods of uses thereof” (Merck Sharp & Dohme LLC, priority 2021, dated 2024).
